Measured values taken from patent US10927105B1 (Lundbeck La Jolla Research Center, Inc., priority 2017, dated 2021).

biological target: MAGL (Homo sapiens (Human), UniProt Q99685); assay: In vitro competitive activity-based protein profiling (human prefrontal cortex membrane fractions, FP-Rh probe), MAGL band; settings: read-out: MAGL IC50 (μM) (human); human prefrontal cortex membrane fractions
Sequence (Q99685 whole entry): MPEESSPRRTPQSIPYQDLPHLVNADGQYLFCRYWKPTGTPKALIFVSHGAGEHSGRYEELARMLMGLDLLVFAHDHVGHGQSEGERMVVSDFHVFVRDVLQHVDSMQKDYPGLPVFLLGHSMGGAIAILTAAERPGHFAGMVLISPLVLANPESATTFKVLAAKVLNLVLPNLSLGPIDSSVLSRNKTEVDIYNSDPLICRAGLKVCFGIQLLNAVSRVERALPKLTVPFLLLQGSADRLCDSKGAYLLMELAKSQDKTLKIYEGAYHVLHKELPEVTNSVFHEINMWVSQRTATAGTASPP
Procedure: Biological Evaluation In Vitro Competitive Activity-Based Protein Profiling.
Proteomes (mouse brain membrane fraction for mouse assays; human prefrontal cortex membrane fractions for human assays) (50 mL, 1.0 mg/mL total protein concentration) were preincubated with varying concentrations of inhibitors at 37° C. After 30 min, FP-Rh (1.0 mL, 50 mM in DMSO) was added and the mixture was incubated for another 30 min at 37° C. Reactions were quenched with SDS loading buffer (15 μL-4×) and run on SDS-PAGE.

SMILES | IC50 [µM]
Cc1cn(C(=O)N2C[C@H]3C[C@H](OCc4cccc(C(F)(F)F)c4)C[C@H]3C2)nc1C(=O)O [Example 290, 4-methyl-1-(trans-5-((3-(trifluoromethyl)-benzyl)oxy)-octahydrocyclopenta-[c]pyrrole-2-carbonyl)-1H-pyrazole-3-carboxylic acid] | < 0.1
O=C(O)c1nn(C(=O)N2C[C@H]3C[C@H](OCc4cc(F)cc(Cl)c4)C[C@H]3C2)cc1Cl [Example 296, 4-chloro-1-(trans-5-((3-chloro-5-fluorobenzyl)oxy)-octahydrocyclopenta-[c]pyrrole-2-carbonyl)-1H-pyrazole-3-carboxylic acid] | < 0.1
C[C@@H]1CN(Cc2ccc(Cl)c(-c3nccs3)c2)CCN1C(=O)n1ccc(C(=O)O)n1 [Example 299, (R)-1-(4-(4-chloro-3-(thiazol-2-yl)benzyl)-2-methylpiperazine-1-carbonyl)-1H-pyrazole-3-carboxylic acid] | < 0.1
Cc1cc(CN2CCCC23CCN(C(=O)n2ccc(C(=O)O)n2)CC3)cc(C(F)(F)F)c1 [Example 303, 1-(1-(3-methyl-5-(trifluoromethyl)-benzyl)-1,8-diazaspiro[4.5]-decane-8-carbonyl)-1H-pyrazole-3-carboxylic acid] | < 0.1
C[C@H]1CN(Cc2cccc(Oc3ccc(Cl)cc3)c2)CCN1C(=O)n1ccc(C(=O)O)n1 [Example 311, (S)-1-(4-(3-(4-chlorophenoxy)-benzyl)-2-methylpiperazine-1-carbonyl)-1H-pyrazole-3-carboxylic acid] | < 0.1
O=C(O)c1ccn(C(=O)N2CCC3(CC2)CN(Cc2cc(Cl)ccc2C(F)(F)F)C3)n1 [Example 313, 1-(2-(5-chloro-2-(trifluoromethyl)-benzyl)-2,7-diazaspiro[3.5]-nonane-7-carbonyl)-1H-pyrazole-3-carboxylic acid] | < 0.1
O=C(O)c1ccn(C(=O)N2C[C@H]3C[C@H](Oc4ccc(Cl)c(-c5nccs5)c4)C[C@H]3C2)n1 [Example 318, 1-(trans-5-(4-chloro-3-(thiazol-2-yl)phenoxy)-octahydrocyclopenta-[c]pyrrole-2-carbonyl)-1H-pyrazole-3-carboxylic acid] | < 0.1
O=C(O)c1ccn(C(=O)N2CCN(Cc3cc(F)cc(Oc4ccccc4Cl)c3)CC2)n1 [Example 319, 1-(4-(3-(2-chlorophenoxy)-5-fluorobenzyl)-piperazine-1-carbonyl)-1H-pyrazole-3-carboxylic acid] | < 0.1
O=C(O)c1nn(C(=O)N2CCN(Cc3cccc(Oc4ccc(F)cc4)c3)CC2)cc1Cl [Example 320, 4-chloro-1-(4-(3-(4-fluorophenoxy)-benzyl)-piperazine-1-carbonyl)-1H-pyrazole-3-carboxylic acid] | < 0.1
O=C(O)c1nn(C(=O)N2CCN(Cc3cc(Cl)cc(-c4cncnc4)c3)CC2)cc1Cl [Example 323, 4-chloro-1-(4-(3-chloro-5-(pyrimidin-5-yl)benzyl)-piperazine-1-carbonyl)-1H-pyrazole-3-carboxylic acid] | < 0.1
C[C@@H]1CN(Cc2ccc(C(F)(F)F)cc2N2CCCC2)CCN1C(=O)n1ccc(C(N)=O)n1 [Example 325, (R)-1-(2-methyl-4-(2-(pyrrolidin-1-yl)-4-(trifluoromethyl)-benzyl)piperazine-1-carbonyl)-1H-pyrazole-3-carboxamide] | < 0.1
O=C(O)c1ccn(C(=O)N2CCC(OCc3cc(N4CCCC4)cc(C(F)(F)F)c3)CC2)n1 [Example 331, 1-(4-((3-(pyrrolidin-1-yl)-5-(trifluoromethyl)-benzyl)-oxy)piperidine-1-carbonyl)-1H-pyrazole-3-carboxylic acid] | < 0.1
O=C(O)c1ccn(C(=O)N2CCN(Cc3ccc(C(F)(F)F)cc3N3CC[C@@H](O)C3)CC2)n1 [Example 333, (R)-1-(4-(2-(3-hydroxypyrrolidin-1-yl)-4-(trifluoromethyl)-benzyl)-piperazine-1-carbonyl)-1H-pyrazole-3-carboxylic acid] | < 0.1
O=C(O)c1ccn(C(=O)N2CCC3(CCN(Cc4cc(Cl)cc(Cl)c4Cl)C3)CC2)n1 [Example 337, 1-(2-(2,3,5-trichlorobenzyl)-2,8-diazaspiro[4.5]-decane-8-carbonyl)-1H-pyrazole-3-carboxylic acid] | < 0.1
O=C(O)c1ccn(C(=O)N2CCC3(CCN(Cc4cccc(C(F)(F)F)c4Cl)C3)CC2)n1 [Example 339, 1-(2-(2-chloro-3-(trifluoromethyl)-benzyl)-2,8-diazaspiro[4.5]-decane-8-carbonyl)-1H-pyrazole-3-carboxylic acid] | < 0.1
Cc1c(CO[C@H]2C[C@@H]3CN(C(=O)n4cc(Cl)c(C(=O)O)n4)C[C@@H]3C2)cccc1C(F)(F)F [Example 341, 4-chloro-1-(trans-5-((2-methyl-3-(trifluoromethyl)-benzyl)oxy)-octahydrocyclopenta-[c]pyrrole-2-carbonyl)-1H-pyrazole-3-carboxylic acid] | < 0.1
O=C(O)c1ccn(C(=O)N2C[C@H]3C[C@H](OCc4ccc(Cl)c(-c5nccs5)c4)C[C@H]3C2)n1 [Example 345, 1-(trans-5-((4-chloro-3-(thiazol-2-yl)benzyl)oxy)-octahydrocyclopenta-[c]pyrrole-2-carbonyl)-1H-pyrazole-3-carboxylic acid] | < 0.1
Cc1cn(C(=O)N2CCN(Cc3cc(F)cc(Oc4ccc(Cl)cc4)c3)CC2)nc1C(=O)O [Example 346, 1-(4-(3-(4-chlorophenoxy)-5-fluorobenzyl)-piperazine-1-carbonyl)-4-methyl-1H-pyrazole-3-carboxylic acid] | < 0.1
C[C@H]1CN(Cc2cc(F)cc(Oc3ccccc3Cl)c2)CCN1C(=O)n1ccc(C(=O)O)n1 [Example 349, (S)-1-(4-(3-(2-chlorophenoxy)-5-fluorobenzyl)-2-methylpiperazine-1-carbonyl)-1H-pyrazole-3-carboxylic acid] | < 0.1

Other lines, results leading:

IC50 [µM] | SMILES
< 0.1 | O=C(O)c1ccn(C(=O)N2CCC3(CCN(Cc4cccc(Cl)c4Cl)C3)CC2)n1 [Example 286, 1-(2-(2,3-dichlorobenzyl)-2,8-diazaspiro[4.5]-decane-8-carbonyl)-1H-pyrazole-3-carboxylic acid]
< 0.1 | Cc1c(CO[C@@H]2C[C@@H]3CN(C(=O)n4ccc(C(=O)O)n4)C[C@@H]3C2)cccc1C(F)(F)F [Example 289, 1-(cis-5-((2-methyl-3-(trifluoromethyl)-benzyl)oxy)-octahydrocyclopenta-[c]pyrrole-2-carbonyl)-1H-pyrazole-3-carboxylic acid]
< 0.1 | C[C@@H]1CN(Cc2ccc(-c3ccccc3)cc2Cl)CCN1C(=O)n1ccc(C(=O)O)n1 [Example 291, (R)-1-(4-((3-chloro-[1,1′-biphenyl]-4-yl)methyl)-2-methylpiperazine-1-carbonyl)-1H-pyrazole-3-carboxylic acid]
< 0.1 | O=C(O)c1nn(C(=O)N2C[C@H]3C[C@H](Oc4cccc(-c5ccccc5)c4)C[C@H]3C2)cc1Cl [Example 304, 1-(trans-5-([1,1′-biphenyl]-3-yloxy)-octahydrocyclopenta-[c]pyrrole-2-carbonyl)-4-chloro-1H-pyrazole-3-carboxylic acid]
< 0.1 | Cc1cn(C(=O)N2C[C@H]3C[C@H](OCc4cccc(C(F)(F)F)c4C)C[C@H]3C2)nc1C(=O)O [Example 306, 4-methyl-1-(trans-5-((2-methyl-3-(trifluoromethyl)-benzyl)oxy)-octahydrocyclopenta-[c]pyrrole-2-carbonyl)-1H-pyrazole-3-carboxylic acid]
< 0.1 | O=C(O)c1ccn(C(=O)N2CCC(Oc3ccc(C(F)(F)F)cc3N3CCCC3)CC2)n1 [Example 307, 1-(4-(2-(pyrrolidin-1-yl)-4-(trifluoromethyl)-phenoxy)-piperidine-1-carbonyl)-1H-pyrazole-3-carboxylic acid]
< 0.1 | O=C(O)c1ccn(C(=O)N2CCC(Oc3cc(N4CCCC4)cc(C(F)(F)F)c3)CC2)n1 [Example 308, 1-(4-(3-(pyrrolidin-1-yl)-5-(trifluoromethyl)-phenoxy)-piperidine-1-carbonyl)-1H-pyrazole-3-carboxylic acid]
< 0.1 | O=C(O)c1nn(C(=O)N2C[C@H]3C[C@H](OCc4cccc(C(F)(F)F)c4)C[C@H]3C2)cc1Cl [Example 314, 4-chloro-1-(trans-5-((3-(trifluoromethyl)-benzyl)oxy)-octahydrocyclopenta-[c]pyrrole-2-carbonyl)-1H-pyrazole-3-carboxylic acid]
< 0.1 | O=C(O)c1ccn(C(=O)N2CCN(Cc3cc(F)cc(Oc4cccc(Cl)c4)c3)CC2)n1 [Example 321, 1-(4-(3-(3-chlorophenoxy)-5-fluorobenzyl)-piperazine-1-carbonyl)-1H-pyrazole-3-carboxylic acid]
< 0.1 | C[C@@H]1CN(Cc2ccc(C(F)(F)F)cc2N2CCCC2)CCN1C(=O)n1ccc(C(=O)O)n1 [Example 327, (R)-1-(2-methyl-4-(2-(pyrrolidin-1-yl)-4-(trifluoromethyl)-benzyl)-piperazine-1-carbonyl)-1H-pyrazole-3-carboxylic acid]
< 0.1 | C[C@H]1CN(Cc2cc(F)cc(Oc3ccc(Cl)cc3)c2)CCN1C(=O)n1ccc(C(=O)O)n1 [Example 347, (S)-1-(4-(3-(4-chlorophenoxy)-5-fluorobenzyl)-2-methylpiperazine-1-carbonyl)-1H-pyrazole-3-carboxylic acid]
< 0.1 | C[C@@H]1CN(Cc2cc(F)cc(Oc3ccc(Cl)cc3)c2)CCN1C(=O)n1ccc(C(=O)O)n1 [Example 348, (R)-1-(4-(3-(4-chlorophenoxy)-5-fluorobenzyl)-2-methylpiperazine-1-carbonyl)-1H-pyrazole-3-carboxylic acid]
< 0.1 | C[C@@H]1CN(Cc2ccc(-c3ccccc3)cc2C(F)(F)F)CCN1C(=O)n1ccc(C(=O)O)n1 [Example 351, (R)-1-(2-methyl-4-((3-(trifluoromethyl)-[1,1′-biphenyl]-4-yl)methyl)-piperazine-1-carbonyl)-1H-pyrazole-3-carboxylic acid]
